Laboratory results as given in US8501242B2, “Methods and compositions for treating neoplasia” (University of Florida Research Foundation, priority 2009, dated 2013).

Key:
[1] = target: human thymidylate synthase (Homo sapiens, UniProt P04818); assay: spectrophotometric assay of human thymidylate synthase activity; assay type: biochemical; details: for Ki: Table 2, kinetic parameters of TS in presence of selected compounds
Method: A spectrophotometric assay is used to test compounds for their inhibitory activity against human thymidylate synthase activity. This assay is a modification of the assay of Wahba, A. J., and Friedkin, M. (1961). Direct spectrophotometric evidence for the oxidation of tetrahydrofolate during the enzymatic synthesis of thymidylate (J. Biol. Chem. 236, PC11-12).
In the spectrophotometric assay, human thymidylate synthase is preincubated with deoxyuridine monophosphate (and inhibitors) in 96-well plates for 0-5 minutes at room temperature and fresh 5,10-methylene tetrahydrofolate (THF) is added to the mixture immediately before the reaction to yield a volume of 100 μl. 5,10-methylene tetrahydrofolate is prepared fresh prior to every experiment by dissolving THF in 0.26 M formaldehyde, 80 mM dithiothreitol, and 50 mM Tris HCI (pH 6.8/7.0). X-ray crystallography is then utilized to identify any binding site in human thymidylate synthase for an inhibitor and also to characterize its mechanism of action.
The 40 highest scoring compounds in the above-mentioned screening assay were obtained and tested for their abilities to inhibit the biochemical activity of human thymidylate synthase. Four compounds were inhibitory and preliminary studies show the enzyme mechanism to be non-competitive (i.e. through modulating or interfering with association among human thymidylate synthase monomers).

HT29 = assay: cell proliferation experiments, combination with 5-FU; assay type: cell-based, human; details: combination of CNX treatment with 5-FU versus 5FU alone
Excerpt: (§1) The combination of certain compounds (e.g., CNX) with certain anti-cancer compounds (e.g., 5-FU) can produce synergistic anticancer effects.

HeLa = assay: as above; assay type: cell-based, human; details: combination of CNX treatment with 5-FU versus 5FU alone
Excerpt: as §1

human thymidylate synthase, sequence (P04818 whole entry): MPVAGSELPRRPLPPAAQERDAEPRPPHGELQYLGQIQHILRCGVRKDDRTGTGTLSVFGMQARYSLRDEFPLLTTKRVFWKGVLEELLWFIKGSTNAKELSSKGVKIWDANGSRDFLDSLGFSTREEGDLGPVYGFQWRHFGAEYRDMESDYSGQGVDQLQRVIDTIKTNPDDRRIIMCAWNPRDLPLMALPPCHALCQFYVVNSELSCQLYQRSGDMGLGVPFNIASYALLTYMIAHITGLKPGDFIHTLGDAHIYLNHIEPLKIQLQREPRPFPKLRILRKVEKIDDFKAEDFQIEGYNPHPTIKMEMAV

Row | Compound | Ki [1] [µM] | other results
1 | O=c1[nH]cc(F)c(=O)[nH]1 [5-FU, 5-fluorouracil, reference compound] | 56.7 | 
2 | O=C(O)Cn1cc(I)c(=O)c(I)c1 [NSC60718, (3,5-diiodo-4-oxo-1(4H)-pyridinyl)acetic acid] | 29.8 | 
3 | CC(=O)Nc1c(I)cc(I)c(C(=O)O)c1I [NSC141235, 3-(acetylamino)-2,4,6-triiodobenzoic acid.6-(methylamino)hexane-1,2,3,4,5-pentol] | 5.4 | 
4 | CCn1nc(C(=O)O)c(=O)c2cc3c(cc21)OCO3 [NSC304467, 1-Ethyl-4-oxo-1,4-dihydro[1,3]dioxolo[4,5-g]cinnoline-3-carboxylic acid] | 0.32 | enzyme mechanism of TS inhibition [1]: non-competitive; inhibiting TS activity (in words) [1]: potent; inhibitory effect on cell proliferation (HT29): greater inhibitory effects than 5FU alone; inhibitory effect on cell proliferation (HeLa): greater inhibitory effects than 5FU alone

The next lines start with results.

Row | Ki [1] [µM] | Compound | other results
5 | 2.12 | O=P(O)(O)OCC(O)CO (stereo not drawn) [NSC9231, 2,3-Dihydroxypropyl dihydrogen phosphate] | 
6 | 45.5 | O=C(O)C(S)C(S)C(=O)O (stereo not drawn) [NSC16867, 2,3-Dimercaptosuccinic acid] | 
7 | 177 | CCN(CC)S(=O)(=O)c1ccc(C(=O)O)cc1 [NSC49467, P-(Diethylsulfamoyl)benzoic acid] | 
8 | 602 | CC(=O)NC(CS)C(=O)O (stereo not drawn) [NSC111180, 2-acetamido-3-sulfanylpropanoic acid] | 
